The record followed here is patent publication EP4682173A1, “METHOD FOR PRODUCING RADIOLABELED ANTIBODY, RADIOLABELED ANTIBODY, AND RADIOACTIVE MEDICINE” (Kagoshima University, priority 2023, dated 2024).

The test system of this test is EGFR. Put plainly: Test Example 7: antigen binding activity by in vitro ARG (^89Zr-labeled Pmab). The arrangement: species or system human. As to conditions: day after production.

Regarding “Comparative Example 3: ^89Zr-panitumumab conjugate (monovalent) by the CCAP method”, the “binding activity for EGFR” value is recorded as “confirmed”.
